Data reported in PMC4503722, “Novel Phenotypic Outcomes Identified for a Public Collection of Approved Drugs from a Publicly Accessible Panel of Assays” (PLoS ONE, 2015).
Where two headings read alike, the source gives them in different places.

What was measured:
Test in all cases: cells
NCI-H716 cells = format: cell-based, Human
SNU-C1 = format: cell-based; settings: Homo sapiens
[1] = test system: HCT116 cells treated with a GSK3β inhibitor; format: cell-based; settings: Homo sapiens
[2] = test system: nuclear β-catenin in C2C12 cells; format: cell-based
INS-1E cells = format: cell-based, rat
HeLa cells = format: cell-based; settings: Homo sapiens, HeLa, HeLa, read-out: CellCycle G2/M
HT-29 = format: cell-based
[3] = test system: endothelial tube formation in co-cultures of ECFCs and ADSCs treated with VEGF; format: cell-based, human
RKO = format: cell-based
SW480 = format: cell-based; settings: Homo sapiens
Colo320 = format: cell-based
HCT116 = format: cell-based; settings: Homo sapiens
DLD-1 = format: cell-based; settings: Homo sapiens
[4] = Homo sapiens, NCI-H716; read-out: GLP 1 Secretion
[5] = SNU-C1, basal, SNU-C1, read-out: Basal_Viability ATP SNU-C1
[6] = HCT-116, HCT116 pretreated with GSK3b inhibitor, read-out: GSK3b inh pretreated_Viability ATP HCT116
[7] = Mus musculus, C2C12, S2 Table; module primary assay; 20 / 20.1 codes per legend; read-out: Wnt Pathway
[8] = Rattus norvegicus, INS-1E; read-out: Insulin Secretion
[9] = S2 Table, 20 = no response at highest concentration
[10] = Homo sapiens; basal; HT-29; read-out: Basal_Viability ATP HT-29
[11] = Homo sapiens; read-out: Anti-Angiogenesis
[12] = Homo sapiens; basal; RKO; read-out: Basal_Viability ATP RKO
[13] = SW480, basal, SW480, read-out: Basal_Viability ATP SW480
[14] = Homo sapiens; basal; Colo 320; read-out: Basal_Viability ATP Colo 320
[15] = HCT-116, basal, HCT116, read-out: Basal_Viability ATP HCT116
[16] = DLD-1, basal, DLD-1, read-out: Basal_Viability ATP DLD-1
[17] = Homo sapiens, NCI-H716, read-out: GLP 1 Secretion
[18] = SNU-C1, read-out: Basal_Viability ATP SNU-C1
[19] = HCT-116, read-out: GSK3b inh pretreated_Viability ATP HCT116
[20] = Mus musculus, C2C12, read-out: Wnt Pathway
[21] = Rattus norvegicus, INS-1E, read-out: Insulin Secretion
[22] = Homo sapiens, HT-29, read-out: Basal_Viability ATP HT-29
[23] = Homo sapiens, read-out: Anti-Angiogenesis
[24] = Homo sapiens, RKO, read-out: Basal_Viability ATP RKO
[25] = SW480, read-out: Basal_Viability ATP SW480
[26] = Homo sapiens, COLO 320, read-out: Basal_Viability ATP Colo 320
[27] = HCT-116, read-out: Basal_Viability ATP HCT116
[28] = DLD-1, read-out: Basal_Viability ATP DLD-1

Row | Compound | EC50 (NCI-H716 cells; [4]) | IC50 (SNU-C1; [5]) | IC50 [1, 6] | EC50 [2, 7] | EC50 (INS-1E cells; [8]) | EC50 (HeLa cells; [9]) | IC50 (HT-29; [10]) | IC50 [3, 11] | IC50 (RKO; [12]) | IC50 (SW480; [13]) | IC50 (Colo320; [14]) | IC50 (HCT116; [15]) | IC50 (DLD-1; [16]) | EC50 (NCI-H716 cells; [17]) | IC50 (SNU-C1; [18]) | IC50 [1, 19] | EC50 [2, 20] | IC50 (RKO; [24]) | IC50 (SW480; [25]) | IC50 (DLD-1; [28]) | other results
1 | CCCCC(CC)CNC(=N)NC(=N)NCCCCCCNC(=N)NC(=N)NCC(CC)CCCC (centres unmarked) [alexidine] | > 10000 nM | 94.1 nM | 396 nM | > 10000 nM | > 10000 nM | > 10000 nM | 30.2 nM | 408 nM | 223 nM | 333 nM | 4.1 nM | 710 nM | 19.7 nM | – | – | – | – | – | – | – | –
2 | O=Cc1ccc(O)c(O)c1O [2,3,4-Trihydroxybenzaldehyde] | – | – | – | – | – | – | – | – | – | – | – | – | – | > 10000 nM | > 20000 nM | 141 nM | > 10000 nM | 6230 nM | 11300 nM | > 20000 nM | EC50 (INS-1E cells; [21]): > 10000 nM; EC50 (HeLa cells): > 10000 nM; IC50 (HT-29; [22]): > 20000 nM; IC50 [3, 23]: > 10000 nM; IC50 (Colo320; [26]): 9080 nM; IC50 (HCT116; [27]): > 20000 nM
3 | COc1cccc2c1C(=O)c1c(O)c3c(c(O)c1C2=O)C[C@@](O)(C(=O)CO)C[C@@H]3O[C@H]1C[C@H](N)[C@H](O[C@@H]2CCCCO2)[C@H](C)O1 [pirarubicin] | > 10000 nM | – | 1280 nM | – | > 10000 nM | 80.6 nM | > 20000 nM | 6.3 nM | 1010 nM | – | 2010 nM | 911 nM | – | – | 9260 nM | – | – | – | 7820 nM | 8950 nM | EC50 ([2]; Mus musculus, C2C12; read-out: Wnt Pathway): 3950 nM
4 | O=C(Nc1ccc(Br)cc1)c1cc(Br)cc(Br)c1O [Tribromsalan] | > 10000 nM | 1 nM | 1 nM | > 10000 nM | > 10000 nM | > 10000 nM | 1 nM | 1810 nM | 3 nM | 1 nM | 3 nM | 3 nM | 1 nM | – | – | – | – | – | – | – | –
5 | CO[C@@]12[C@H](COC(N)=O)C3=C(C(=O)C(C)=C(N)C3=O)N1C[C@@H]1N[C@@H]12 [Mitomycin] | – | – | – | – | – | – | – | – | – | – | – | – | – | > 10000 nM | 8130 nM | > 20000 nM | > 10000 nM | 995 nM | 12100 nM | 5630 nM | EC50 (INS-1E cells; [21]): > 10000 nM; EC50 (HeLa cells): > 10000 nM; IC50 (HT-29; [22]): 2570 nM; IC50 [3, 23]: 102 nM; IC50 (Colo320; [26]): 12600 nM; IC50 (HCT116; [27]): 13600 nM
6 | O=C(Nc1ccc(Oc2ccc(Cl)cc2)c(Cl)c1)c1cc(I)cc(I)c1O [Rafoxanide] | – | – | – | – | – | – | – | – | – | – | – | – | – | – | – | – | – | – | – | – | EC50 (NCI-H716 cells; Homo sapiens; IC50 / EC50; NCI-H716; read-out: GLP 1 Secretion): 1300 nM; IC50 (SNU-C1; SNU-C1, basal, read-out: Basal_Viability ATP SNU-C1): 14.3 nM; IC50 ([1]; HCT-116, GSK3b inhibitor pretreated, read-out: GSK3b inh pretreated_Viability ATP HCT116): 66.7 nM; EC50 ([2]; Mus musculus, C2C12, IC50 / EC50; C2C12 beta-catenin translocation; read-out: Wnt Pathway): > 10000 nM; EC50 (INS-1E cells; Rattus norvegicus; IC50 / EC50; INS-1E; read-out: Insulin Secretion): > 10000 nM; IC50 (HT-29; Homo sapiens, HT-29; read-out: Basal_Viability ATP HT-29): 9.5 nM; IC50 ([3]; Homo sapiens, IC50 / EC50; endothelial tube area, ADSC/ECFC co-culture; read-out: Anti-Angiogenesis): > 10000 nM; IC50 (RKO; Homo sapiens, RKO; read-out: Basal_Viability ATP RKO): 30.3 nM; IC50 (SW480; SW480, basal, read-out: Basal_Viability ATP SW480): 10.8 nM; IC50 (Colo320; Homo sapiens, COLO 320; read-out: Basal_Viability ATP Colo 320): 54 nM; IC50 (HCT116; HCT-116, basal, read-out: Basal_Viability ATP HCT116): 16.9 nM; IC50 (DLD-1; DLD-1, basal, read-out: Basal_Viability ATP DLD-1): 8.4 nM
7 | CN(C)c1ccc(C(=C2C=CC(=[N+](C)C)C=C2)c2ccccc2)cc1 [malachite green] | – | – | – | – | – | – | – | – | – | – | – | – | – | > 10000 nM | 35.4 nM | 9.83 nM | 363 nM | 118 nM | 9.22 nM | 21.8 nM | EC50 (INS-1E cells; [21]): > 10000 nM; IC50 (HT-29; [22]): 9.82 nM; IC50 [3, 23]: 60.5 nM; IC50 (Colo320; [26]): 161 nM; IC50 (HCT116; [27]): 17.9 nM
8 | COP(=S)(OC)Oc1ccc(Sc2ccc(OP(=S)(OC)OC)cc2)cc1 [temephos] | > 10000 nM | 3030 nM | > 20000 nM | > 10000 nM | > 10000 nM | – | > 20000 nM | > 10000 nM | – | 11.8 nM | > 20000 nM | > 20000 nM | > 20000 nM | – | – | – | – | 12100 nM | – | – | –
